How the values were obtained:
[1] = test system: non-tumor CHO cells; test: CellTiter-Glo Luminescent Cell Viability Assay; assay type: cell-based, Chinese hamster; details: 48 h; for IC50: Cricetulus griseus, non-tumor CHO cells, read-out: Estimated IC50
Method: (§1) Given their potent antiproliferative effects on tumor cells, two conjugates were selected for testing on non-tumor CHO cells to investigate their selectivity. […] Cell viability of non-tumor CHO cells was assessed using the CellTiter-Glo Luminescent Cell Viability Assay (Promega, Madison, WI, USA), following treatment with 3a and 3f. Stock solutions (10 mM in DMSO) were stored frozen until use. CHO cells were cultured in complete DMEM (low glucose, 1 g/L) supplemented with 10% fetal bovine serum, 1% GlutaMAX-I, 1% non-essential amino acids, and 0.1% penicillin–streptomycin. Cells were seeded into opaque 96-well plates (5000 cells/100 µL/well), with peripheral wells filled with sterile PBS to minimize edge effects. After overnight incubation (37 °C, 5% CO2), cells were treated with increasing concentrations of the compounds (10^−5, 10^−6, and 10^−7 M) diluted in complete DMEM. Untreated cells served as controls, and complete DMEM was used to determine background luminescence. DMSO controls corresponding to the solvent concentrations of each treatment condition were also included; no significant effect on cell viability was observed. After 48 h, CellTiter-Glo reagent was added, and luminescence was measured using an EnSpire AlphaLisa microplate reader (Perkin Elmer). Relative light unit (RLU) values were normalized to untreated controls (100% viability). Non-linear regression analysis was performed in GraphPad Prism 8.0.1 to estimate IC50 values by fitting sigmoidal dose–response curves (log[inhibitor] vs. normalized response, variable slope).

[2] = test system: Renal Cancer panel; test: NCI60 five-dose screen, panel mean; assay type: cell-based; details: Homo sapiens; mean over Renal Cancer panel
Method: (§2) Since all new conjugates (3a–h) had notable antiproliferative activities on several tumor cell lines in the course of the one-dose screening, they were subjected to a five-dose test. […] J. Mol. Sci. 2025, 26, 11063 10 of 10 S.3. NCI60 Screening A detailed description of the NCI screening procedures can also be found on the website of NCI [39], and in our previous work. S.3.1. One-Dose Screen All candidates were examined at first at a single high dose (10 μM) in the full NCI60 cell panel. The value reported for the one-dose test is growth relative to the no-drug control and relative to the time zero number of cells. This made possible the disclosure of both growth inhibition (numbers between 0 and 100) and lethality (numbers less than 0). For example, a value of 100 means no growth inhibition. A value of 20 would mean 80% growth inhibition. A value of 0 means no net growth over the course of the analysis. A value of −20 would mean 20% lethality. A value of −100 means all cells are dead. S.3.2. […] The human tumor cell lines of the cancer screening panel were grown in RPMI 1640 medium containing 5% fetal bovine serum and 2 mM l-glutamine. Characteristically, cells were injected in 96-well microtiter plates in 0.1 mL at plating densities ranging from 5000 to 40,000 cells/well, depending on the doubling time of individual cell lines. After cell inoculation, the microtiter plates were incubated at 37 °C, 5% carbon dioxide, 95% air, and 100% relative humidity for 24 hours before the addition of tested compounds. After 24 hours, 2 plates of each cell line were fixed in situ with Cl3COOH (TCA), to represent a measurement of the cell population for each cell line at the time of drug addition (tz). Tested compounds were solubilized in DMSO at 400-fold the desired final maximum test concentration and stored frozen before application. In the course of the drug addition, an aliquot of frozen concentrate was thawed and diluted to twice the desired final maximum test concentration with a complete medium containing 50 μg mL−1 gentamicin. Additional four, 10-fold or ½ log serial dilutions were produced to furnish a total of five drug concentrations plus control. Aliquots of 0.1 mL of these different drug dilutions were added to the appropriate microtiter wells already containing 0.1 mL of medium, resulting in the required final drug concentrations. Following drug addition, the plates were incubated at 37 °C, 5% carbon dioxide, 95% air, and 100% relative humidity for an additional 48 hours. For adherent cells, the test was finished by the addition of cold Cl3COOH. Cells were fixed in situ by the addition of 50 μL of cold 50% (w/v) Cl3COOH, and incubated at 4 °C for 1 hour. The supernatant was discarded, and the plates were washed with H2O (5×) and dried in air. Sulforhodamine B (SRB) solution (0.1 mL) at 0.4% (w/v) in 1% CH3COOH was added to each well, and plates were incubated at RT for 10 min. After staining, the unbound dye was removed by washing five times with 1% CH3COOH, and the plates were dried in the air. The bound stain is afterward solubilized with a 10 mM trizma base, and the absorbance is read on an automated plate reader at λ = 515 nm. Utilizing the seven absorbance measurements [time zero (tz), control growth (c), and test growth in the presence of the drug at the five concentration levels (ti)], the percentage growth was determined at each of the drug concentration levels. Growth inhibition (%) was calculated as: [(ti − tz)/(c − tz)] × 100, for concentrations where ti ≥ tz (1) [(ti − tz)/(tz)] × 100, for concentrations where ti < tz. (2) Three dose‒response parameters were calculated as follows. GI50 (growth inhibition of 50%) was determined from Equation (3), which is the drug concentration resulting in a 50% reduction in the net protein increase (as measured by SRB staining) in control cells in the course of the drug incubation. [(ti − tz)/(c − tz)] × 100 = 50 (3)

[3] = test system: Colon Cancer panel; test: NCI60 five-dose screen, panel mean; assay type: cell-based; details: Homo sapiens; mean over Colon Cancer panel
Method: as §2

[4] = test system: Non-small-Cell Lung Cancer panel; test: NCI60 five-dose screen, panel mean; assay type: cell-based; details: Homo sapiens; mean over Non-small-Cell Lung Cancer panel
Method: as §2

[5] = test system: Breast Cancer panel; test: NCI60 five-dose screen, panel mean; assay type: cell-based; details: Homo sapiens; mean over Breast Cancer panel
Method: as §2

[6] = test system: CNS Cancer panel; test: NCI60 five-dose screen, panel mean; assay type: cell-based; details: Homo sapiens; mean over CNS Cancer panel
Method: as §2

[7] = test system: Melanoma panel; test: NCI60 five-dose screen, panel mean; assay type: cell-based; details: Homo sapiens; mean over Melanoma panel
Method: as §2

[8] = test system: Ovarian Cancer panel; test: NCI60 five-dose screen, panel mean; assay type: cell-based; details: Homo sapiens; mean over Ovarian Cancer panel
Method: as §2

[9] = test system: Leukemia panel; test: NCI60 five-dose screen, panel mean; assay type: cell-based; details: Homo sapiens; mean over Leukemia panel
Method: as §2

[10] = test system: Prostate Cancer panel; test: NCI60 five-dose screen, panel mean; assay type: cell-based; details: Homo sapiens; mean over Prostate Cancer panel
Method: as §2

[11] = CellTiter-Glo Luminescent Cell Viability Assay; assay type: cell-based, Chinese hamster; details: Chinese hamster, CHO cells (non-tumor), CHO cells, 10^−6 M
Method: as §1

[12] = test system: 60 human cancer cell lines; set-up: method as in doi:10.3311/PPch.21919, PMID 34874114; details: previous work ref 24, 26; cited from earlier work

SMILES	cell viability ([1]; CHO cells, 10^−6 M)	IC50 [1] [nM]	GI50 [2] [nM]	GI50 [3] [nM]	GI50 [4] [nM]	GI50 [5] [nM]	GI50 [6] [nM]	GI50 [7] [nM]	GI50 [8] [nM]	GI50 [9] [nM]	GI50 [10] [nM]	viability at 48 h [11] [%]	antiproliferative effects (in words) [12]
O=c1cc(-c2ccccc2)oc2cc(OCCCC[P+](c3ccccc3)(c3ccccc3)c3ccccc3)cc(O)c12 [3a]	minimally affected	2650	530	620	460	240	300	300	890	260	410		
Cc1ccc([P+](CCCCOc2cc(O)c3c(=O)cc(-c4ccccc4)oc3c2)(c2ccc(C)cc2)c2ccc(C)cc2)cc1 [3b]			310	390	310	250	300	320	480	220	200		
COc1ccc([P+](CCCCOc2cc(O)c3c(=O)cc(-c4ccccc4)oc3c2)(c2ccc(OC)cc2)c2ccc(OC)cc2)cc1 [3c]			1030	640	590	330	460	350	760	340	370		
O=c1cc(-c2ccccc2)oc2cc(OCCCC[P+](c3ccc(F)cc3)(c3ccc(F)cc3)c3ccc(F)cc3)cc(O)c12 [3d]			2100	1690	1970	1610	1670	1740	3900	1710	1740		
O=c1cc(-c2ccccc2)oc2cc(OCCCC[P+](C3CCCCC3)(C3CCCCC3)C3CCCCC3)cc(O)c12 [3e]			1300	940	1070	590	750	550	1950	420	870		
COc1c(C)cc([P+](CCCCOc2cc(O)c3c(=O)cc(-c4ccccc4)oc3c2)(c2cc(C)c(OC)c(C)c2)c2cc(C)c(OC)c(C)c2)cc1C [3f]		1150	320	410	290	220	280	310	510	120	310	60.2 ± 2.9	
Cc1ccccc1[P+](CCCCOc1cc(O)c2c(=O)cc(-c3ccccc3)oc2c1)(c1ccccc1C)c1ccccc1C [3g]			580	580	450	250	330	270	820	210	340		
O=c1cc(-c2ccccc2)oc2cc(OCCCC[P+](c3ccccc3)(c3ccccc3)c3ccccn3)cc(O)c12 [3h]			1350	1070	1070	530	770	520	1890	260	900		
O=c1cc(-c2ccccc2)oc2cc(O)cc(O)c12 [compound 2, 5,7-dihydroxyflavone, reference compound]													does not exert remarkable antiproliferative effects

From paper PMC12652692, “Synthesis and In Vitro Anticancer Evaluation of Novel Phosphonium Derivatives of Chrysin” (International Journal of Molecular Sciences, 2025)
